Values joined by “and” are separate entries in the source; they are usually repeats but may differ in a detail not shown here. Equal entries are not always repeated.
Experiments:
Type in all cases: biochemical
membrane-bound rMpAOX [1] = target: T1, membrane-bound rMpAOX (Moniliophthora perniciosa, UniProt A8QJP8); experiment: Membrane-bound rMpAOX activity with putative activators (O2 uptake, oxygraph; dose-response); settings: single independent measurements (Fig1a); for Fold-change in membrane-bound rMpAOX O2 uptake: 1 mM each; for fold induction at 1000 µM: pH 7.5, 1 mM each, read-out: Fold-change in membrane-bound rMpAOX O2 uptake
T1 sequence (A8QJP8 entry or part of it): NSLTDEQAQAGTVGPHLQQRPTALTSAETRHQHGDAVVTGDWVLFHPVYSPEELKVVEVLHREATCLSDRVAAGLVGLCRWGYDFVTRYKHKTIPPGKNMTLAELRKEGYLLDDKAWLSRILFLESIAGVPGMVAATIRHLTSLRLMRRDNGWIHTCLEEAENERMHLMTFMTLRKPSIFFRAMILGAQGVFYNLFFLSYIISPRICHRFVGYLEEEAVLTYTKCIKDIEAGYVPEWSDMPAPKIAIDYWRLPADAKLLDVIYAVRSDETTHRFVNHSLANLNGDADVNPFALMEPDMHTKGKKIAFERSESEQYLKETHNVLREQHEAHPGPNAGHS
Experimental: (§1) E. coli membrane preparation was performed as described with minor modifications. […] The cells were disrupted using two passes at […] through a pre-cooled Constant cell disruption system (Constant Systems Ltd). The lysate was centrifuged for 15 min at 16,000 rcf, and the pelleted unbroken cells and large cell debris were discarded. The supernatant was centrifuged for 90 min at 200,000 rcf to collect the fragmented membranes.
(§2) Respiration rates were recorded before and after the addition of putative AOX activators, such as 5′-ADP, 5′-AMP, 5′-GDP, 5′-GMP, glyoxylate, oxaloacetate, pyruvate or succinate (1 mM each unless stated otherwise). […] Data were acquired with the Multiskan FC Microplate Photometer (ThermoFisher). […] Absorbance readings were taken periodically and a blank reactions (substrate without enzyme) were included in every assay and were used to determine and subtract the autoxidation rate (background). Proteoliposomes were assayed as described for the E. coli membrane fraction except that no KCN was included and 0.5 µL of the prep (~50 ng rMpAOX) were added into the reaction. When tested, inhibitors were preincubated with the enzyme in reaction buffer for 2–5 min before starting the reaction by the addition of substrate. The path length (i.e., the height of the reaction medium inside the well) was calculated based on the reaction volume and the well cross-section area informed by the supplier. GraphPad Prism 7.0 (GraphPad Software Inc.) was used for function fitting.

purified rMpAOX = purified rMpAOX (Moniliophthora perniciosa, UniProt A8QJP8); experiment: Purified (detergent-solubilised) rMpAOX, Q1H2 oxidation; settings: for Activity: [Q1H2]
Sequence of purified rMpAOX (A8QJP8 entry or part of it): as above
Experimental: The E. coli membrane fraction was resuspended with 50 mM Tris-HCl pH 7.5, 20% glycerol, 200 mM MgSO4 and 1% Fos-Choline-12 (FC-12) instead of MOPS buffer. The sample was left under gentle rocking for 1 h at 4 °C, after which it was centrifuged at 200,000 rcf for 30 min. […] T. Elthon, Nebraska, USA. Protein content was estimated through the Bradford method[63] and bovine serum albumin as standard.
as §2

[2] = target: rMpAOX incorporated into proteoliposomes (Moniliophthora perniciosa, UniProt A8QJP8); experiment: rMpAOX incorporated into proteoliposomes with Q10 and NDH-2 (NADH oxidation); settings: for Km / VMax: substrate ubiquinol-10 in proteoliposomes, ~50 ng rMpAOX, 300 µM NADH
Sequence of rMpAOX incorporated into proteoliposomes (A8QJP8 entry or part of it): as above
Experimental: Proteoliposomes (PL) were prepared as previously described[44],[45], except that NDH-2 was used instead of complex I and 0.5% DDM was used instead of OG. […] For kinetic studies, PLs were prepared with 50 µg rMpAOX and no NDH-2—in this case, pure NDH-2 was added directly into the enzymatic reaction mixture at a saturating concentration. Briefly, lipids and Q10 stocks in chloroform were mixed in a glass vial and the chloroform dried under a nitrogen stream. The lipids were hydrated and extruded through a 100 nm NanoSizer MINI Liposome Extruder (T&T Scientific) followed by the addition of protein. After treatment with the Bio-Beads SM-2 Resin (Bio-Rad), proteolipososmes were harvested by ultracentrifugation and resuspended in 150 µL of buffer. Enzymatic assays were performed on the same day.
as §2

membrane-bound rMpAOX [3] = target: T1, membrane-bound rMpAOX; experiment: Dose-response assay of inhibitors with membrane-bound, GMP-activated rMpAOX (NADH oxidation); settings: for Fractional velocity, %: log[I]
Experimental: as §1, §2

[4] = substrate ubiquinol-1, 0.0125% C12E8, 100 ng rMpAOX

O=C(O)CC(=O)C(=O)O [OXAL, oxaloacetate] was tested, and the “Fold-change in membrane-bound rMpAOX O2 uptake” value (membrane-bound rMpAOX [1]; 1000 µM) was 0.932 and 1.186 and the fold induction at 1000 µM (membrane-bound rMpAOX [1]) was 0.847.
With CC(=O)C(=O)O [PYR, pyruvate] the “Fold-change in membrane-bound rMpAOX O2 uptake” value (membrane-bound rMpAOX [1]; 1000 µM) was 0.7655 and 0.9453 and the fold induction at 1000 µM (membrane-bound rMpAOX [1]) was 0.681.
COc1c(O)c(C)c(CC=C(C)C)c(O)c1OC [Q1H2, ubiquinol-1] was tested, and the Oxidation rate (purified rMpAOX; 180 µM Q1H2) was 0.36 µmol/min/mg, the Activity (purified rMpAOX; M 4.29 (Fig3c, mean)) was 25.2546 nmol/min/mg and the Activity (purified rMpAOX; M 6.87 (Fig3c, mean)) was 30.5181 nmol/min/mg. It also gave an Activity (purified rMpAOX; M 10.99 (Fig3c, mean)) of 60.7997 nmol/min/mg, an Activity (purified rMpAOX; M 17.58 (Fig3c, mean)) of 87.5414 nmol/min/mg and an Activity (purified rMpAOX; M 28.12 (Fig3c, mean)) of 145.463 nmol/min/mg. It also gave an Activity (purified rMpAOX; M 45 (Fig3c, mean)) of 202.371 nmol/min/mg, an Activity (purified rMpAOX; M 71.99 (Fig3c, mean)) of 274.627 nmol/min/mg and an Activity (purified rMpAOX; M 115.19 (Fig3c, mean)) of 327.356 nmol/min/mg. The Activity (purified rMpAOX; M 184.3 (Fig3c, mean)) was 355.622 nmol/min/mg, the Km (purified rMpAOX; [4]) was 68.5 µM and the VMax (purified rMpAOX; [4]) was 504.1 nmol Q1 min^−1 mg^−1 and 504.1 ± 28.7 nmol Q1 min^−1 mg^−1.
Compound COc1c(O)c(C)c(C/C=C(\C)CC/C=C(\C)CC/C=C(\C)CC/C=C(\C)CC/C=C(\C)CC/C=C(\C)CC/C=C(\C)CC/C=C(\C)CC/C=C(\C)CCC=C(C)C)c(O)c1OC [Q10H2, ubiquinol-10] has a rMpAOX catalytic rate ([2]; 180 µM Q10H2 in the phospholipid membrane, calculated from KM and VMax) of 9.3 µmol/min/mg, a Km [2] of 960 ± 760 µM and a VMax [2] of 59.4 ± 6.6 µmol Q10 min^−1 mg^−1.
In the case of COC1=C(OC)C(=O)C(C/C=C(\C)CC/C=C(\C)CC/C=C(\C)CC/C=C(\C)CC/C=C(\C)CC/C=C(\C)CC/C=C(\C)CC/C=C(\C)CC/C=C(\C)CCC=C(C)C)=C(C)C1=O [Q10], the Km [2] is reported as 960 ± 760 µM and the VMax [2] is reported as 59.4 µmol Q10 min^−1 mg^−1 and 59.4 ± 6.6 µmol Q10 min^−1 mg^−1.
For O=C(NO)c1ccccc1O [SHAM, salicylhydroxamic acid], the “Fractional velocity, %” value (membrane-bound rMpAOX [3]; M -4.60206 (Fig2b), 25 µM) was 95.8272% and 90.1105%, the “Fractional velocity, %” value (membrane-bound rMpAOX [3]; M -5.60206 (Fig2b), 2.5 µM) was 96.6342% and 84.7725% and the “Fractional velocity, %” value (membrane-bound rMpAOX [3]; M -6.60206 (Fig2b), 0.25 µM) was 99.0344% and 87.1837%. For the same compound, the “Fractional velocity, %” value (membrane-bound rMpAOX [3]; M -7.60206 (Fig2b), 0.025 µM) was 97.5117% and 94.5942%, the “Fractional velocity, %” value (membrane-bound rMpAOX [3]; M -8.60206 (Fig2b), 0.0025 µM) was 99.3055% and 95.1323% and the “Fractional velocity, %” value (membrane-bound rMpAOX [3]; M -9.60206 (Fig2b), 0.00025 µM) was 99.8162% and 99.1897%. For the same compound, the “Fractional velocity, %” value (membrane-bound rMpAOX [3]; M -10.6021 (Fig2b), 25 pM) was 99.1867% and 91.0587%, the activity at 25 µM (membrane-bound rMpAOX [3]; read-out: Fractional velocity, %, log[I], M -4.60206 (Fig2b)) was 96.4% and the activity at 2.5 µM (membrane-bound rMpAOX [3]; read-out: Fractional velocity, %, log[I], M -5.60206 (Fig2b)) was 98%. The activity at 0.25 µM (membrane-bound rMpAOX [3]; read-out: Fractional velocity, %, log[I], M -6.60206 (Fig2b)) was 96.1%, the activity at 0.025 µM (membrane-bound rMpAOX [3]; read-out: Fractional velocity, %, log[I], M -7.60206 (Fig2b)) was 95.6% and the activity at 0.0025 µM (membrane-bound rMpAOX [3]; read-out: Fractional velocity, %, log[I], M -8.60206 (Fig2b)) was 94.9%. For the same compound, the activity at 0.00025 µM (membrane-bound rMpAOX [3]; read-out: Fractional velocity, %, log[I], M -9.60206 (Fig2b)) was 93.7%, the activity at 25 pM (membrane-bound rMpAOX [3]; read-out: Fractional velocity, %, log[I], M -10.6021 (Fig2b)) was 88.7% and the “Effect on membrane-bound rMpAOX” value (membrane-bound rMpAOX [3]; up to the maximal tested concentration of 25 µM) was “did not exert any effect”.
With O=C(O)CCC(=O)O [SUCC, succinate] the “Fold-change in membrane-bound rMpAOX O2 uptake” value (membrane-bound rMpAOX [1]) was 1.198 and 0.7995 and 1.017.

Source: article PMC7248098, “Biochemical characterization and inhibition of the alternative oxidase enzyme from the fungal phytopathogen Moniliophthora perniciosa” (Communications Biology, 2020)
